Source: PMC11945201, “Enhancing the Oral Bioavailability of Glutathione Using Innovative Analogue Approaches” (Pharmaceutics, 2025)

Columns and labels:
pepsin = pepsin (Bos taurus, UniProt P00792); experiment: in vitro; settings: bovine, pepsin solution
Description: (§1) To investigate the GSH degradation against common enzymes of the GI tract, the degradation of GSH in the presence of pepsin, chymotrypsin, trypsin, aminopeptidase, GGT, jejunum luminal content, and mucosal homogenates obtained from the rats’ intestines were investigated. GSH (100 μgmL^−1) was incubated at 37 °C with the above enzymes or mixtures for 24 h. The sample was withdrawn at the time intervals of 0, 1, 10, 30, 60, 120, 240, 480, and 1440 min, which were then mixed with equal volume of ice-cold HCl (0.2 molL^−1) until analysis by HPLC. Enzymatic degradation was repeated until three results within <5% SD were obtained.

chymotrypsin = chymotrypsin (Bos taurus, UniProt P00766); experiment: in vitro; settings: bovine, chymotrypsin solution
Description: as §1

in vitro = settings: rat
Description: as §1

aminopeptidase = experiment: in vitro; settings: aminopeptidase solution
Description: as §1

[1] = test system: γ-glutamyl transferase (GGT); experiment: in vitro; settings: horse, γ-glutamyl transferase (GGT) solution
Description: as §1

trypsin = trypsin (Bos taurus, UniProt P00760); experiment: in vitro; settings: bovine, trypsin solution
Description: as §1

Chain of pepsin (P00792 43-372): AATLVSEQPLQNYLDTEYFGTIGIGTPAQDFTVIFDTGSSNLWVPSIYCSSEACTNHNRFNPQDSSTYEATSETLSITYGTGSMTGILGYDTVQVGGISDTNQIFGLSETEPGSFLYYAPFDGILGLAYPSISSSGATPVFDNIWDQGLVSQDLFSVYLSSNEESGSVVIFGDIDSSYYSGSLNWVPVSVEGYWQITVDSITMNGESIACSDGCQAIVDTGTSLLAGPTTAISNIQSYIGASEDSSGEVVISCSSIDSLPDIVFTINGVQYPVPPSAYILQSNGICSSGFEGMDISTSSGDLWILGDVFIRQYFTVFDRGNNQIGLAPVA
Chain of trypsin (P00760 24-246): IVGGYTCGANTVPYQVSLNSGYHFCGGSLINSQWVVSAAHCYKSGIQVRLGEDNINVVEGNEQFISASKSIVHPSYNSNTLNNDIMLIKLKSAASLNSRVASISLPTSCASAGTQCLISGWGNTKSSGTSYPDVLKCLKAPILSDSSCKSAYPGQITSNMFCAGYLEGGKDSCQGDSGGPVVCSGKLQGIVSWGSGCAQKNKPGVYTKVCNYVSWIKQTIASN

With `N[C@@H](CCC(=O)N[C@@H](CS)C(=O)NCC(=O)O)C(=O)O` [GSH, Glutathione] the half-life at 100 μgmL^−1 (pepsin) was 31.4 ± 1.6 h, the half-life at 100 μgmL^−1 (chymotrypsin) was 4.6 ± 0.2 h and the half-life at 100 μgmL^−1 (in vitro; jejunum luminal contents) was 30.5 ± 1.5 h. The half-life at 100 μgmL^−1 (in vitro; jejunum mucosal homogenates) was 9.4 ± 2 h, the half-life at 100 μgmL^−1 (aminopeptidase) was 18.9 ± 0.9 h and the half-life at 100 μgmL^−1 [1] was 0.7 ± 0.03 h. It also gave a half-life at 100 μgmL^−1 (trypsin) of 5.8 ± 0.3 h.
